Activity calls are given as the source filed them. No cut-off for these calls is given here.
How the values were obtained:
MDA-MB-231 [1] = assay: Antiproliferative activity against human MDA-MB-231 cells after 48 hrs by CCK8 assay; assay type: functional, cell-based; settings: MDA-MB-231, 48 h
MCF7 = assay: Antiproliferative activity against human MCF7 cells after 48 hrs by CCK8 assay; assay type: functional, cell-based; settings: MCF7, 48 h
HepG2 = assay: Antiproliferative activity against human HepG2 cells after 48 hrs by CCK8 assay; assay type: functional, cell-based; settings: HepG2, 48 h
K562 = assay: Synergistic antiproliferative activity against human K562 cells at compound to DMXAA mol ratio of 1:1 after 48 hrs by CCK8 assay; assay type: functional, cell-based; settings: K562, 48 h
MDA-MB-231 [2] = assay: Induction of apoptosis in human MDA-MB-231 cells assessed as early apoptotic cells at 0.2 uM after 48 hrs by Annexin-V/FITC/PI staining based flow cytometry (reference value: 0.44 %); assay type: functional
MDA-MB-231 [3] = assay: Induction of apoptosis in human MDA-MB-231 cells assessed as late apoptotic cells at 0.2 uM after 48 hrs by Annexin-V/FITC/PI staining based flow cytometry (reference value: 1.50 %); assay type: functional
MDA-MB-231 [4] = assay: Induction of apoptosis in human MDA-MB-231 cells assessed as necrotic cells at 0.2 uM after 48 hrs by Annexin-V/FITC/PI staining based flow cytometry (reference value: 1.55 %); assay type: functional
MDA-MB-231 [5] = assay: Induction of apoptosis in human MDA-MB-231 cells assessed as viable cells at 0.4 uM after 48 hrs by Annexin-V/FITC/PI staining based flow cytometry (reference value: 96.51 %); assay type: functional; settings: MDA-MB-231, 48 h, read-out: Activity
MDA-MB-231 [6] = assay: Induction of apoptosis in human MDA-MB-231 cells assessed as viable cells at 0.8 uM after 48 hrs by Annexin-V/FITC/PI staining based flow cytometry (reference value: 96.51 %); assay type: functional; settings: MDA-MB-231, 48 h, read-out: Activity
MDA-MB-231 [7] = assay: Induction of apoptosis in human MDA-MB-231 cells assessed as necrotic cells at 0.8 uM after 48 hrs by Annexin-V/FITC/PI staining based flow cytometry (reference value: 1.55 %); assay type: functional
MDA-MB-231 [8] = assay: Synergistic induction of apoptosis in human MDA-MB-231 cells assessed as viable cells at 0.2 uM after 48 hrs in presence of DMXAA by Annexin-V/FITC/PI staining based flow cytometry (reference value: 99.95 %); assay type: functional; settings: MDA-MB-231, 48 h, read-out: Activity
MDA-MB-231 [9] = assay: Synergistic induction of apoptosis in human MDA-MB-231 cells assessed as late apoptotic cells at 0.2 uM after 48 hrs in presence of DMXAA by Annexin-V/FITC/PI staining based flow cytometry (reference value: 0.00 %); assay type: functional
MDA-MB-231 [10] = assay: Synergistic induction of apoptosis in human MDA-MB-231 cells assessed as necrotic cells at 0.8 uM after 48 hrs in presence of DMXAA by Annexin-V/FITC/PI staining based flow cytometry (reference value: 0.00 %); assay type: functional
MDA-MB-231 [11] = assay: Synergistic induction of apoptosis in human MDA-MB-231 cells assessed as viable cells at 0.4 uM after 48 hrs in presence of DMXAA by Annexin-V/FITC/PI staining based flow cytometry (reference value: 99.95 %); assay type: functional; settings: MDA-MB-231, 48 h, read-out: Activity
MDA-MB-231 [12] = assay: Decrease in caspase-9 level in human MDA-MB-231 cells at 0.2 to 0.8 uM after 48 hrs by Western blot analysis; assay type: functional, cell-based
MDA-MB-231 [13] = assay: Synergistic induction of apoptosis in human MDA-MB-231 cells assessed as decrease in caspase-9 level at 0.1 to 0.5 uM after 48 hrs in presence of DMXAA by Western blot analysis; assay type: functional, cell-based
MDA-MB-231 [14] = assay: Decrease in MDM2 level in human MDA-MB-231 cells at 0.2 to 0.8 uM after 48 hrs by Western blot analysis; assay type: functional, cell-based
MDA-MB-231 [15] = assay: Synergistic decrease in MDM2 level in human MDA-MB-231 cells at 0.1 to 0.5 uM after 48 hrs in presence of DMXAA by Western blot analysis; assay type: functional, cell-based
MDA-MB-231 [16] = assay: Synergistic antiproliferative activity against human MDA-MB-231 cells at compound to DMXAA mol ratio of 1:1 after 48 hrs by CCK8 assay relative to compound alone; assay type: functional
MDA-MB-231 [17] = assay: Induction of apoptosis in human MDA-MB-231 cells after 48 hrs in presence of DMXAA by Annexin-V/FITC/PI staining based flow cytometry; assay type: functional, cell-based

- IC50 (MDA-MB-231 [1]): 0.46 µM
- IC50 (MCF7): 3.4 µM
- IC50 (HepG2): 9.2 µM
- IC50 (K562): 10.2 µM
Compound: O=c1c2cc(Br)ccc2oc2cc(O)cc(O)c12
- Activity (MDA-MB-231 [2]): 0.98%
- Activity (MDA-MB-231 [3]): 5.35%
- Activity (MDA-MB-231 [4]): 14.44%
- viability at 0.4 µM (MDA-MB-231 [5]): 47.9%
- viability at 0.8 µM (MDA-MB-231 [6]): 39.1%
- Activity (MDA-MB-231 [7]): 45.02%
- viability at 0.2 µM (MDA-MB-231 [8]): 48.6%
- Activity (MDA-MB-231 [9]): 10.2%
- Activity (MDA-MB-231 [10]): 17.47%
- viability at 0.4 µM (MDA-MB-231 [11]): 46.3%
- Activity (MDA-MB-231 [12]): Active
- Activity (MDA-MB-231 [13]): Active
- Activity (MDA-MB-231 [14]): Active
- Activity (MDA-MB-231 [15]): Active
- fold change (FC) (MDA-MB-231 [16]): 10
- Activity (MDA-MB-231 [17]): Dose-dependent effect
